The IC50 is the point on the concentration scale where inhibition reaches its midpoint. For orientation: melting point means the temperature of the solid-liquid transition.

Read-outs that look alike come from different tables or passages of the source.

We go through 7 compounds from patent publication US6392045B1, “9-azobicyclo[3.3.1] non-2-ene derivatives as cholinergic ligands at nicotinic ACH receptors” (NeuroSearch A/S, priority 1997, dated 2002).

For series [1], the target named is nAChRs comprised of α4 and β2 subunits (Rattus norvegicus, UniProt P09483+P12390). The experiment in a line: In vitro inhibition of 3H-cytisine binding. As for the experimental part: In Vitro Inhibition of ^3H-cytisine Binding
The predominant subtype with high affinity for nicotine is comprised of α4 and β2 subunits. nAChRs of the latter type can selectively be labelled by the nicotine agonist ^3H-cytisine.
Tissue Preparation: Preparations are performed at 0-4° C. unless otherwise indicated. […] The homogenate is centrifuged at 27,000×g for 10 min. The supernatant is discarded and the pellet is resuspended in fresh buffer and centrifuged a second time. The final pellet is resuspended in fresh buffer (35 ml per g of original tissue) and used for binding assays.
Assay: Aliquots of 500 μl homogenate are added to 25 μl of test solution and 25 μl of ^3H-cytisine (1 nM, final concentration), mixed and incubated for 90 min at 2° C. Non-specific binding is determined using (−)-nicotine (100 μM, final concentration). After incubation the samples are added 5 ml of ice-cold buffer and poured directly onto Whatman GF/C glass fibre filters under suction and immediately washed with 2×5 ml ice-cold buffer. The amount of radioactivity on the filters is determined by conventional liquid scintillation counting. Specific binding is total binding minus non-specific binding.

The target in series [2] is nAChR formed by the α7 subunit isoform (Rattus norvegicus, UniProt Q05941). The experiment in a line: biochemical. Type of series: binding.
Series [3] addresses T1, α4β2 subtype of nicotinic receptors (neuronal nicotinic receptors) (Rattus norvegicus, UniProt P09483+P12390).
T1 construct: The forebrain (÷cerebellum) from a male Wistar rat (150-250 g) is homogenized; from tissue; host or cells: rat forebrain (without cerebellum) homogenate (male Wistar)
The series can be described thus: In vitro inhibition of 3H-epibatidin binding. The method, then:
In Vitro Inhibition of ^3H-epibatidin Binding
The high affinity binding site for ^3H-epibatidin is most certainly binding to the α4β2 subtype of nicotinic receptors. The identity of the low affinity site is still unknown; does it represent a second nicotinic receptor or a second site in the same receptor.
Tissue preparation: Preparations are performed at 0-4° C. unless otherwise indicated. The forebrain (÷cerebellum) from a male Wistar rat (150-250 g) is homogenized for 10-20 sec in 20 ml Tris, HCl (50 mM, pH 7.4) using an Ultra-Turrax homogenizer. The tissue suspension is centrifuged at 27,000×g for 10 min. The supernatant is discarded and the pellet is washed three times by centrifugation at 27,000×g for 10 min in 20 ml fresh buffer, and the final pellet is resuspended in fresh buffer (400 ml per g of original tissue) and used for binding assays.
Assay: Aliquots of 2.0 ml homogenate are added to 0.100 ml of test solution and 0.100 ml of ^3H-epibatidin (0.3 nM, final concentration), mixed and incubated for 60 min at room temperature. Non-specific binding is determined using (−)-nicotine (30 μM, final concentration). After incubation the samples are poured directly onto Whatman GF/C glass fibre filters (presoaked in 0.1% PEI for at least 20 min) under suction and immediately washed with 2×5 ml ice-cold buffer. The amount of radioactivity on the filters is determined by conventional liquid scintillation counting. Specific binding is total binding minus non-specific binding.

For series [4] the following is noted: approximate potency, times that of morphine; cited from earlier work.
The mark [5] stands for this setting: read-out: 3H-α-bungarotoxin IC50.

nAChR formed by the α7 subunit isoform, sequence (Q05941 23-502): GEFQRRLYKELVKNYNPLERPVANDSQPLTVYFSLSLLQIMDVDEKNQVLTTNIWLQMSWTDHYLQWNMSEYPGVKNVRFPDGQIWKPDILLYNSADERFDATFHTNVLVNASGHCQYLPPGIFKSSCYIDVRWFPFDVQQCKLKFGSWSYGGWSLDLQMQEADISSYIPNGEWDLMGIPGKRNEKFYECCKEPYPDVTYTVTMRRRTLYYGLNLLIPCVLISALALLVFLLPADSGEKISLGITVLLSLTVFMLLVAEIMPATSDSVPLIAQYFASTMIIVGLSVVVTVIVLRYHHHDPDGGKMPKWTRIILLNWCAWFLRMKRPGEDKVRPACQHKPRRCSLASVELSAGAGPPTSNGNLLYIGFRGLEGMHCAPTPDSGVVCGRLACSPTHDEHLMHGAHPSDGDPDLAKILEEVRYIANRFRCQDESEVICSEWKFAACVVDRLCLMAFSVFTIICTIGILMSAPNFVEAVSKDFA
nAChRs comprised of α4 and β2 subunits, sequence (P09483 31-630): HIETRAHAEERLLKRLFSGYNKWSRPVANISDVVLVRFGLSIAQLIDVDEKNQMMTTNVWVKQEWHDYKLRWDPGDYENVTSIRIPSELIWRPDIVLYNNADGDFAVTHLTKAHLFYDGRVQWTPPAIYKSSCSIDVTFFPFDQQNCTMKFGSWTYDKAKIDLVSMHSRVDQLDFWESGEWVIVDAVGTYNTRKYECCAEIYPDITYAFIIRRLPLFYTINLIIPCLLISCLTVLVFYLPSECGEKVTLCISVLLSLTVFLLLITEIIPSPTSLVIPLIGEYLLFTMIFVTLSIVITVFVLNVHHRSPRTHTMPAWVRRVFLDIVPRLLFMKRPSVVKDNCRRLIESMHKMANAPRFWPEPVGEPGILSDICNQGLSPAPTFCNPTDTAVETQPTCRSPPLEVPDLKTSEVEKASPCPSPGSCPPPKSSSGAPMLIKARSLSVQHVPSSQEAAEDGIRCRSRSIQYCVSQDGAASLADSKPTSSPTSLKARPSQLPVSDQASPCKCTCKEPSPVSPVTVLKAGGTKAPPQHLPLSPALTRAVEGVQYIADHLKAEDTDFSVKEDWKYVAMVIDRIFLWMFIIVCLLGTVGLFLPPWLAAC
nAChRs comprised of α4 and β2 subunits, sequence (P12390 25-500): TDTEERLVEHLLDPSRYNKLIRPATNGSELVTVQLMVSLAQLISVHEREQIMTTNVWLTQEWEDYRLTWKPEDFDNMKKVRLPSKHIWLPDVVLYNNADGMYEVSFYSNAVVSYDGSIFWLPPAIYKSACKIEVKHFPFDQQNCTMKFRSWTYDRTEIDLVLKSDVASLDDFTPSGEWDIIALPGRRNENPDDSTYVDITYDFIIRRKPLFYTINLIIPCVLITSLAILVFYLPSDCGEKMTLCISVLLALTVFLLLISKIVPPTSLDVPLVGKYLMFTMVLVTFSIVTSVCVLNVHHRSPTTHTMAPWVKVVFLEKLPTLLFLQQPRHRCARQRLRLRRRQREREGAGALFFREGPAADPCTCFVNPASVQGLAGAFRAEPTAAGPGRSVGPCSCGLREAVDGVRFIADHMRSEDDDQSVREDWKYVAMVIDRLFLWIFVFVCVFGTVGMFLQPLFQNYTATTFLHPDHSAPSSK
T1 sequence (P09483 31-630): as the sequence (P09483 31-630) above
T1 sequence (P12390 25-500): as the sequence (P12390 25-500) above

The compound `CN1C2C=C(c3cncc(-c4ccc(Oc5ccccc5)cc4)c3)CC1CCC2.O=C(O)/C=C/C(=O)O` (racemic) [Compound 4b, (±)-3-[5-(4-Phenoxyphenyl)-3-pyridyl]-9-methyl-9-azabicyclo[3.3.1]non-2-ene Fumaric Acid Salt] had a melting point of 166 to 168 °C. Also, the IC50 in series [1] amounted to 350 nM. The IC50 in series [2] (setting [5]) amounted to 17000 nM. The compound also returned an IC50 in series [3] of 690 nM.
Take `CN1C2C=C(c3ccoc3)CC1CCC2.O=C(O)/C=C/C(=O)O` (racemic) [Compound 4c, (±)-3-(3-Furyl)-9-methyl-9-azabicyclo[3.3.1]non-2-ene Fumaric Acid Salt]: the melting point was in the range of 167 to 174 °C. Besides, the 50% inhibitory concentration (IC50) in series [1] turned out to be 2000 nM. Also, in series [2] (setting [5]), the IC50 stood at 660 nM. The compound further came in with an IC50 in series [3] of 5000 nM.
Taken in the same sequence, the figures for `CN1C2C=C(c3cccc([N+](=O)[O-])c3)CC1CCC2.O=C(O)/C=C/C(=O)O` (racemic) [Compound 5c, (±)-9-Methyl-3-(3-nitrophenyl)-9-azabicyclo[3.3.1]non-2-ene Fumaric Acid Salt] were 133 to 144 °C, 2700 nM, 2200 nM and 3900 nM.
The matching figures for `CCN1C2C=C(c3cccnc3)CC1CCC2.O=C(O)/C=C/C(=O)O` (racemic) [Compound 6a, (±)-9-Ethyl-3-(3-pyridyl)-9-azabicyclo[3.3.1]non-2-ene Fumaric Acid Salt]: 193 to 195 °C, 1800 nM, 5800 nM and 1700 nM.
`CN1C2C=C(c3cnc4ccccc4c3)CC1CCC2.O=C(O)/C=C/C(=O)O` (racemic) [Compound 6b, (±)-3-(3-Quinolinyl)-9-methyl-9-azabicyclo[3.3.1]non-2-ene Fumaric Acid Salt] gave a melting point of 195 to 197 °C. The IC50 in series [1] (rat cerebral cortex homogenate, 1 nM 3H-cytisine, 90 min at 2° C., read-out: 3H-cytisine IC50) is 1000 nM. The compound further gave an IC50 in series [2] of 350 nM. In series [3] (rat forebrain homogenate, 0.3 nM 3H-epibatidin, 60 min at room temperature, read-out: 3H-epibatidin IC50), the IC50 was 8300 nM.
Compound `CN1[C@@H]2CCC[C@H]1C[C@H](c1cccnc1)C2` [Compound 8a, Exo-9-Methyl-3-(3-pyridyl)-9-azabicyclo[3.3.1]nonane] showed a melting point of 69 to 70 °C. In series [1], this compound displayed an IC50 of 18 nM. For the same compound, the IC50 in series [2] (setting [5]) came to 1400 nM. The IC50 in series [3] is 110 nM.
For `Clc1ccc(C2CC3CCC2N3)cn1` (stereo not shown) [Epibatidine], the “analgesic potency relative to morphine” value in series [4] is roughly 500 times.
